The text below walks through data of patent US10799475B2, “Substituted phenyl aziridine precursor analogs for inhibiting androgen-independent prostate cancer cell growth” (Northwestern University, priority 2007, dated 2020).

One experiment concerns NF-κB. Put plainly: κB.Luc dual Luciferase assay of GR transrepression in PC cells. As to conditions: all studied prostate cells, basal and IKKβ-induced, CpdA 10^−5 M, 24 hours. It is filed as cell-based, human.
The subject of another experiment is DU145 cells. It is filed as cell-based, human.
The next experiment has as its system DU145 and PC3 cells. Description: Apoptosis by PARP cleavage, Western blotting. It is filed as cell-based, human. (In general: In western blotting, separated proteins are transferred to a membrane and probed.)
Another experiment relates to A375 cells. It is filed as cell-based, human. Particulars: CpdA 5×10^−6 M, 72 hours.
Another experiment concerns C8161 cells. The class given is cell-based, human. As to conditions: CpdA 5×10^−6 M, 72 hours.
The next experiment deals with B16F10 cells. The class given is cell-based, mouse. As to conditions: CpdA 5×10^−6 M, 72 hours.
The next experiment deals with LNCaP-AR^low cells. The class given is cell-based, human. As to conditions: CpdA 2×10^−6 M, 1-10 days.
The conditions of experiment [1]: rodents, proposed concentration 12.5 mg/kg; cited from earlier work.
Experiment [2] has as its target T1, GR (Homo sapiens, UniProt P04150).
T1 sequence (P04150 1-777): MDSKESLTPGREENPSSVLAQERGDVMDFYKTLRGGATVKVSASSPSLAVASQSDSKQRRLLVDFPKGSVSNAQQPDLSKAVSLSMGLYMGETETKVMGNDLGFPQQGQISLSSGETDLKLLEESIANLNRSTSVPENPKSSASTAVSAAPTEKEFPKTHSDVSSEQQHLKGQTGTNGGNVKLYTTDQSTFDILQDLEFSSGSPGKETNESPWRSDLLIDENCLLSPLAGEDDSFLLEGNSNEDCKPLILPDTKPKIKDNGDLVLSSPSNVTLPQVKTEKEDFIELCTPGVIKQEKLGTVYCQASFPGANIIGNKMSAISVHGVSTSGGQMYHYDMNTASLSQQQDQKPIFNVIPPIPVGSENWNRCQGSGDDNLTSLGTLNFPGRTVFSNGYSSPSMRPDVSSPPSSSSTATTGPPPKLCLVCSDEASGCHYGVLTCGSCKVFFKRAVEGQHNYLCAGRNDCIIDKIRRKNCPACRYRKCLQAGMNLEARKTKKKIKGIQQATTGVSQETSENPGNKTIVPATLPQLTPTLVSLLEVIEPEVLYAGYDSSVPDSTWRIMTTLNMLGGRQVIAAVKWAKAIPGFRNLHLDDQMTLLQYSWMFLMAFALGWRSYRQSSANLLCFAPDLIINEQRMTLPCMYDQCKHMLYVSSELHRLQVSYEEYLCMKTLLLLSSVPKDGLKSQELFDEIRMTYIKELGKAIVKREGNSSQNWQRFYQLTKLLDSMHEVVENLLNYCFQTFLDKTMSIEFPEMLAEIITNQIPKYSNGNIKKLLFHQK
Put plainly: GR nuclear translocation, Western blotting and immunofluorescence in LNCaP-GR cells. It is filed as cell-based. Also noted: expressed in transfected cells; host or cells: LNCaP-GR (lentiviral GR); also DU145 and PC3 (endogenous GR).

Experiment [3] has as its target T1, GR. Description: TAT.Luc dual Luciferase assay of GR transactivation in PC cells. It is filed as cell-based. Details: expressed in transfected cells; host or cells: LNCaP-GR (lentiviral GR); also DU145 and PC3 (endogenous GR). As to conditions: LNCaP-GR, DU145 and PC3 cells, CpdA 10^−5 M, 24 hours. The procedure: FIG. 3. Effect of CpdA on GR function in PC cells. A. & B. CpdA-activated GR nuclear translocation. Cells were treated with CpdA, glucocorticoid FA, or anti-glucocorticoid RU486. Panel A (immunofluorescence). Panel B (Western blotting of nuclear protein using HDAC-1 and β-tubulin as protein loading controls). C. CpdA decreased GR-DNA binding (EMSA, nuclear proteins). LNCaP-GR cells were treated with 0.01% DMSO (control), Dex (10^−7 M) or CpdA (10^−5 M) for 4 hours. D. & E. CpdA effect on GR function. PC cells were transiently transfected with TAT.Luc (D) or κB.Luc (E), and control Renilla Luciferase reporters, treated with Dex (10^−6 M) or CpdA (10^−5 M) for 24 hours. For activation of NF-κB, cells were co-transfected with CMV.IKKβ plasmid (in panel E). Reporter activity was assessed by dual Luciferase assay and presented as factor of change.
FIG. 4. CpdA effect on GR function. A. & B. PC cells were transiently transfected with TAT.Luc (A) or κB.Luc (B), and control Renilla Luciferase reporters. Cells were treated with Dex (10^−6 M) and CpdA (10^−5 M) for 24 hours. For activation of NF-κB (as shown in panel B), cells were co-transfected with CMV.IKKβ plasmid. Reporter activity was assessed by dual Luciferase assay and presented as factor of change. […]

Turning to `CNCC(Cl)c1ccc(OC(C)=O)cc1.Cl` (stereo not drawn) [CpdA, 2-(4-acetoxyphenyl)-2-chloro-N-methyl-ethylammonium chloride], in the experiment with NF-κB, the “NF-κB function (κB.Luc)” value was “strongly inhibited”. Besides, in the experiment on DU145 cells, the “growth inhibition vs vehicle-treated control” value is recorded as 60-65%. In the experiment on DU145 cells (CpdA 10^−9 M−2×10^−5 M, 72 hours), the “growth inhibition, concentration-dependent” value was “strongly inhibit”. Also, the “treatment time after which apoptosis is induced (PARP cleavage)” value in the experiment with DU145 and PC3 cells (CpdA 2×10^−6 M) fell in the range of 6 to 8 days. Besides, the “treatment time after which cells are sensitized to TNFα-induced apoptosis” value in the experiment with DU145 and PC3 cells (CpdA then TNFα 10 ng/ml for 16 hours) came out at 2 days. Besides, the growth inhibition result with A375 cells is recorded as “strongly inhibited growth”; in the experiment with C8161 cells, “strongly inhibited growth”; with B16F10 cells, “strongly inhibited growth”; with LNCaP-AR^low cells it was “resistant”. In experiment [1], the anti-inflammatory effect result was “strong anti-inflammatory effect”. Further, at GR [2], the GR nuclear translocation entry is “induce GR nuclear import”. Besides, at GR [3], the “GR transcriptional activation (TAT.Luc)” value is listed as “inhibit GR transcriptional activation”.
